# Experiments:
# Type in all cases: in vivo
# [1] = test system: Kochia (Kochia scoparia); assay: Test A postemergence
# Source text: (§1) Seeds of plant species selected from barnyardgrass (Echinochloa crus-galli), Kochia (Kochia scoparia), ragweed (common ragweed, Ambrosia elatior), ryegrass, Italian (Italian ryegrass, Lolium multiflorum), crabgrass, large (Digitaria sanguinalis), giant foxtail (Setaria faberii), green foxtail (Setaria viridis), morningglory (Ipomoea spp.), pigweed (Amaranthus retroflexus), velvetleaf (Abutilon theophrasti), wheat (Triticum aestivum), and corn (Zea mays) were planted into a blend of loam soil and sand and treated preemergence with a directed soil spray using test chemicals formulated in anon-phytotoxic solvent mixture which included a surfactant.
# (§2) At the same time, plants selected from these crop and weed species and also blackgrass (Alopecurus myosuroides), and Galium (catchweed bedstraw, Galium aparine) were planted in pots containing the same blend of loam soil and sand and treated with postemergence applications of test chemicals formulated in the same manner. Plants ranged in height from 2 to 10 cm and were in the one- to two-leaf stage for the postemergence treatment. Treated plants and untreated controls were maintained in a greenhouse for approximately 10 d, after which time all treated plants were compared to untreated controls and visually evaluated for injury. Plant response ratings, summarized in Table A, are based on a 0 to 100 scale where 0 is no effect and 100 is complete control. A dash (-) response means no test result.
# [2] = test system: blackgrass (Alopecurus myosuroides); assay: Test A postemergence
# Source text: as §1, §2
# [3] = test system: ragweed (common ragweed, Ambrosia elatior); assay: Test A postemergence
# Source text: as §1, §2
# [4] = test system: Galium (catchweed bedstraw, Galium aparine); assay: Test A postemergence
# Source text: as §1, §2
# [5] = test system: corn (Zea mays); assay: Test A postemergence
# Source text: as §1, §2
# [6] = test system: ryegrass, Italian (Italian ryegrass, Lolium multiflorum); assay: Test A postemergence
# Source text: as §1, §2
# [7] = test system: wheat (Triticum aestivum); assay: Test A postemergence
# Source text: as §1, §2
# [8] = test system: pigweed (Amaranthus retroflexus); assay: Test A postemergence
# Source text: as §1, §2
# [9] = test system: giant foxtail (Setaria faberii); assay: Test A postemergence
# Source text: as §1, §2
# [10] = test system: barnyardgrass (Echinochloa crus-galli); assay: Test A postemergence
# Source text: as §1, §2
# [11] = test system: Kochia (Kochia scoparia); assay: Test A preemergence
# Source text: as §1, §2
# [12] = test system: ragweed (common ragweed, Ambrosia elatior); assay: Test A preemergence
# Source text: as §1, §2
# [13] = test system: ryegrass, Italian (Italian ryegrass, Lolium multiflorum); assay: Test A preemergence
# Source text: as §1, §2
# [14] = test system: pigweed (Amaranthus retroflexus); assay: Test A preemergence
# Source text: as §1, §2
# [15] = test system: giant foxtail (Setaria faberii); assay: Test A preemergence
# Source text: as §1, §2
# [16] = test system: barnyardgrass (Echinochloa crus-galli); assay: Test A preemergence
# Source text: as §1, §2
# [17] = 125 g ai/ha, postemergence, visual rating after approx. 10 d, 0 to 100 scale (0 no effect, 100 complete control)
# [18] = Postemergence, 500 g ai/ha, 0 to 100 scale where 0 is no effect and 100 is complete control
# [19] = 125 g ai/ha, Preemergence, visual injury after approximately 10 d, 0 to 100 scale where 0 is no effect and 100 is complete control
# [20] = Preemergence, 500 g ai/ha, visual injury approx. 10 d
structure (smiles),measurement,setting,value
Cc1cc(F)ccc1NC(=O)C1C(=O)N(C)CC1c1cccc(C(F)(F)F)c1 (stereo not drawn) [Compound 575],"Plant response rating, Kochia",[1]; [17],0
same,"Plant response rating, Kochia",[1]; [18],20
same,"Plant response rating, Blackgrass",[2]; [17],70
same,"Plant response rating, Blackgrass",[2]; [18],80
same,"Plant response rating, Ragweed",[3]; [17],0
same,"Plant response rating, Ragweed",[3]; [18],0
same,"Plant response rating, Galium",[4]; [17],50
same,"Plant response rating, Galium",[4]; [18],70
same,"Plant response rating, Corn",[5]; [17],70
same,"Plant response rating, Corn",[5]; [18],80
same,"Plant response rating, Ryegrass, Italian",[6]; [17],60
same,"Plant response rating, Ryegrass, Italian",[6]; [18],70
same,"Plant response rating, Wheat",[7]; [17],40
same,"Plant response rating, Wheat",[7]; [18],70
same,"Plant response rating, Pigweed",[8]; [17],0
same,"Plant response rating, Pigweed",[8]; [18],20
same,"Plant response rating, Foxtail, Giant",[9]; [17],90
same,"Plant response rating, Foxtail, Giant",[9]; [18],90
same,"Plant response rating, Barnyardgrass",[10]; [17],90
same,"Plant response rating, Barnyardgrass",[10]; [18],90
same,"Plant response rating, Kochia",[11]; [19],0
same,"Kochia plant response rating (0 to 100 scale, 0 is no effect, 100 is complete control)",[11]; [20],70
same,"Plant response rating, Ragweed",[12]; [19],0
same,"Ragweed plant response rating (0 to 100 scale, 0 is no effect, 100 is complete control)",[12]; [20],0
same,"Plant response rating, Ryegrass, Italian",[13]; [19],60
same,"Ryegrass, Italian plant response rating (0 to 100 scale, 0 is no effect, 100 is complete control)",[13]; [20],80
same,"Plant response rating, Pigweed",[14]; [19],0
same,"Pigweed plant response rating (0 to 100 scale, 0 is no effect, 100 is complete control)",[14]; [20],40
same,"Plant response rating, Foxtail, Giant",[15]; [19],90
same,"Foxtail, Giant plant response rating (0 to 100 scale, 0 is no effect, 100 is complete control)",[15]; [20],100
same,"Plant response rating, Barnyardgrass",[16]; [19],90
same,"Barnyardgrass plant response rating (0 to 100 scale, 0 is no effect, 100 is complete control)",[16]; [20],100
O=C1NC[C@H](c2ccc3sccc3c2)[C@H]1C(=O)Nc1cccc(F)c1F [Compound 1128],pest or weed control at 500 g/ha,"[1]; Bassia scoparia, post-emergence, 240 h, 500 g ai/ha, postemergence, 0 to 100 scale, 0 is no effect, 100 is complete control, read-out: Kochia plant response rating",70%
same,pest or weed control at 500 g/ha,"[2]; Alopecurus myosuroides, post-emergence, 240 h, 500 g ai/ha, postemergence, 0 to 100 scale, 0 is no effect, 100 is complete control, read-out: Blackgrass plant response rating",50%
same,pest or weed control at 500 g/ha,"[3]; Ambrosia artemisiifolia, post-emergence, 240 h, 500 g ai/ha, postemergence, 0 to 100 scale, 0 is no effect, 100 is complete control, read-out: Ragweed plant response rating",50%
same,pest or weed control at 500 g/ha,"[4]; Galium, post-emergence, 240 h, 500 g ai/ha, postemergence, 0 to 100 scale, 0 is no effect, 100 is complete control, read-out: Galium plant response rating",70%
same,plant injury at 500 g/ha,"[5]; Zea mays, post-emergence, 240 h, 500 g ai/ha, postemergence, 0 to 100 scale, 0 is no effect, 100 is complete control, read-out: Corn plant response rating",50%
same,pest or weed control at 500 g/ha,"[6]; Lolium multiflorum, post-emergence, 240 h, 500 g ai/ha, postemergence, 0 to 100 scale, 0 is no effect, 100 is complete control, read-out: Ryegrass, Italian plant response rating",30%
same,plant injury at 500 g/ha,"[7]; Triticum aestivum, post-emergence, 240 h, 500 g ai/ha, postemergence, 0 to 100 scale, 0 is no effect, 100 is complete control, read-out: Wheat plant response rating",0%
same,pest or weed control at 500 g/ha,"[8]; Amaranthus retroflexus, post-emergence, 240 h, 500 g ai/ha, postemergence, 0 to 100 scale, 0 is no effect, 100 is complete control, read-out: Pigweed plant response rating",0%
same,pest or weed control at 500 g/ha,"[9]; Setaria faberi, post-emergence, 240 h, 500 g ai/ha, postemergence, 0 to 100 scale, 0 is no effect, 100 is complete control, read-out: Foxtail, Giant plant response rating",90%
same,pest or weed control at 500 g/ha,"[10]; Echinochloa crus-galli, post-emergence, 240 h, 500 g ai/ha, postemergence, 0 to 100 scale, 0 is no effect, 100 is complete control, read-out: Barnyardgrass plant response rating",90%
same,pest or weed control at 500 g/ha,"[11]; Bassia scoparia, pre-emergence, 240 h, 500 g ai/ha, preemergence, 0 to 100 scale where 0 is no effect and 100 is complete control, read-out: Kochia plant response rating",80%
same,pest or weed control at 500 g/ha,"[12]; Ambrosia artemisiifolia, pre-emergence, 240 h, 500 g ai/ha, preemergence, 0 to 100 scale where 0 is no effect and 100 is complete control, read-out: Ragweed plant response rating",50%
same,pest or weed control at 500 g/ha,"[13]; Lolium multiflorum, pre-emergence, 240 h, 500 g ai/ha, preemergence, 0 to 100 scale where 0 is no effect and 100 is complete control, read-out: Ryegrass, Italian plant response rating",40%
same,pest or weed control at 500 g/ha,"[14]; Amaranthus retroflexus, pre-emergence, 240 h, 500 g ai/ha, preemergence, 0 to 100 scale where 0 is no effect and 100 is complete control, read-out: Pigweed plant response rating",0%
same,pest or weed control at 500 g/ha,"[15]; Setaria faberi, pre-emergence, 240 h, 500 g ai/ha, preemergence, 0 to 100 scale where 0 is no effect and 100 is complete control, read-out: Foxtail, Giant plant response rating",90%
same,pest or weed control at 500 g/ha,"[16]; Echinochloa crus-galli, pre-emergence, 240 h, 500 g ai/ha, preemergence, 0 to 100 scale where 0 is no effect and 100 is complete control, read-out: Barnyardgrass plant response rating",90%

# Reference: patent US12077503B2, “Substituted cyclic amides and their use as herbicides” (FMC CORPORATION, priority 2015, dated 2024)
